# Measurements: patent US20050203169A1, “Methods and compositions for treating diseases associated with excesses in ACE” (priority 2001, published 2005)
# Read-outs that look alike come from different tables or passages of the source.
# Assays:
# [1] = test system: patient with end-stage COPD; assay: Outcome for patient with COPD on ramipril
# circulating ACE = target: T1, circulating ACE (Homo sapiens, UniProt P12821); details: cited from earlier work; for circulating ACE inhibited: 5 mg dose; for inhibition of enzyme activity: equal amount (5 mg)
# T1 construct: from tissue; host or cells: circulation (blood, plasma or serum) of dosed subjects
# T1 sequence (P12821 30-1232 limits assumed): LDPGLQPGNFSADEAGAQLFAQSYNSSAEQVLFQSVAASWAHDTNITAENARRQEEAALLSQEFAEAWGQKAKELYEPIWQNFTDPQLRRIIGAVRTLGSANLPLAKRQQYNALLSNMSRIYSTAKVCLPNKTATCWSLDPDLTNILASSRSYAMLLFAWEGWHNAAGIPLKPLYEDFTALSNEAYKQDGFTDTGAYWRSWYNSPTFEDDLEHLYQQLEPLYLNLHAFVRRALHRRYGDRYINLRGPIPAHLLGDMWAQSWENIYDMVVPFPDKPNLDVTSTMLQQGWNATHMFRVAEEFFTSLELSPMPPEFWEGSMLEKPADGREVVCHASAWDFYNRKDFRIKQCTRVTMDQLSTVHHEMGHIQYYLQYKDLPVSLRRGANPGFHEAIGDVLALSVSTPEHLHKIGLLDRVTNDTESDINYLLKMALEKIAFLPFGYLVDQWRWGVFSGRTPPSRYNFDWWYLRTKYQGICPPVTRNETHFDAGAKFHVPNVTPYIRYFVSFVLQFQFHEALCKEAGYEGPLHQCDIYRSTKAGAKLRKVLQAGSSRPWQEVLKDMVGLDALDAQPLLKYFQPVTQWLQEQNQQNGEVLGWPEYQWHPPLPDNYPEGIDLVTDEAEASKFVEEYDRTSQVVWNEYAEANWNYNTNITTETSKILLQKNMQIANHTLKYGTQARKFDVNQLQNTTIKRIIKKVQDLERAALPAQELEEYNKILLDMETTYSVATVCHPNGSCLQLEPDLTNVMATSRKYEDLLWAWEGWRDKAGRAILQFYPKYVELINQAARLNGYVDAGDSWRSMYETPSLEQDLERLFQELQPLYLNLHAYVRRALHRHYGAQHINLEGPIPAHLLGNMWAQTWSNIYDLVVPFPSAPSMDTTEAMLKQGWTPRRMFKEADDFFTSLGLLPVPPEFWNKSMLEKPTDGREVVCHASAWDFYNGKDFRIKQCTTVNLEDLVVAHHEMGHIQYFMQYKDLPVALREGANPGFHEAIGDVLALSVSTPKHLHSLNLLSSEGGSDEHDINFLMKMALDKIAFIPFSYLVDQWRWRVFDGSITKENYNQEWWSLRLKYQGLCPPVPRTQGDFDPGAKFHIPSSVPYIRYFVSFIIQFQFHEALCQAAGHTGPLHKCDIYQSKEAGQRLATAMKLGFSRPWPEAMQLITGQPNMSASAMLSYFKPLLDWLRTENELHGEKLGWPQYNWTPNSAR
# [2] = target: ACE (hydrophobic and hydrophilic active site) (Homo sapiens, UniProt P12821); details: cited from earlier work
# Sequence of ACE (hydrophobic and hydrophilic active site) (P12821 30-1306): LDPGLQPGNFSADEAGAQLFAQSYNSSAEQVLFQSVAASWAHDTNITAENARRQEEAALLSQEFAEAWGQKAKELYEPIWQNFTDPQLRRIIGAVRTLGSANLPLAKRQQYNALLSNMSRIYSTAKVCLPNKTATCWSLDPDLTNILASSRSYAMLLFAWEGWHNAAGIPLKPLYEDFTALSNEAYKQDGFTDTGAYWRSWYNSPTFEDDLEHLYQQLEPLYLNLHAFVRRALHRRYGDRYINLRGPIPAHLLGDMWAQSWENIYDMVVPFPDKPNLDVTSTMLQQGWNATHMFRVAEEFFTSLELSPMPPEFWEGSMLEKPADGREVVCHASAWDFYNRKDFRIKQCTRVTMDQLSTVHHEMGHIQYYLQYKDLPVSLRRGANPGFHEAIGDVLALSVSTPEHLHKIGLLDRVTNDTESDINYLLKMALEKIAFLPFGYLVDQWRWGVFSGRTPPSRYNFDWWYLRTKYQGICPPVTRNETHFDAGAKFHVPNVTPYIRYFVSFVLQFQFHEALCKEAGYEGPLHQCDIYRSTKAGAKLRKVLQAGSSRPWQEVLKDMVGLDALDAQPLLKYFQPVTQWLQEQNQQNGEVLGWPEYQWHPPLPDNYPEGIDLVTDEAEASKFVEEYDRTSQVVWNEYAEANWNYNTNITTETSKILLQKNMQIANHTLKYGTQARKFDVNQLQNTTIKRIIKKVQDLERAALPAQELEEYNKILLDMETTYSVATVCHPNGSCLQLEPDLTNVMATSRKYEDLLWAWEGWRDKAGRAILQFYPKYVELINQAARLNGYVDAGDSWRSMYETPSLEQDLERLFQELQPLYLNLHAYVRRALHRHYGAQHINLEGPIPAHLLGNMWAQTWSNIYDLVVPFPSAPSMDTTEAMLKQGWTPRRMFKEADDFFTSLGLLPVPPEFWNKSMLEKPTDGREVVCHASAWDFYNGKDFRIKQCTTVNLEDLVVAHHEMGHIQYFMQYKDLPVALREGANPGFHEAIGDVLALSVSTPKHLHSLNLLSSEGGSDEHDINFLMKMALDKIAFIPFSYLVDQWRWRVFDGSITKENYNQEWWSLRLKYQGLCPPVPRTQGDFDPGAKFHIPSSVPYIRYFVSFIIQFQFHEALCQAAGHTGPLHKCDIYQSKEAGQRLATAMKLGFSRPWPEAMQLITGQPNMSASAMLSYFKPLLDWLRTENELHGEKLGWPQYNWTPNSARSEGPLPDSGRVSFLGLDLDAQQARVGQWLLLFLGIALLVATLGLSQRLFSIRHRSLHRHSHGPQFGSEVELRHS
# hemodialysis patients = assay: Ramipril in hemodialysis patients with ESRD due to hypertension; assay type: in vivo, human; details: 5 mg/day; two black hemodialysis patients
# new cases of NIDDM = details: HOPE study (NEJM Jan. 21, 2000); cited from earlier work
# [3] = test system: patients with CRF (serum creatinine of at least 2 mg/dl); assay: Time to Dialysis in patients with chronic renal failure; assay type: in vivo, human; details: conventional Rx <40 mg/d
# Description: Outcomes data for patients with CRF due to hypertension, determined as Time to Dialysis, for patients with serum creatinine of at least 2 mg/dl at the first clinic visit:
# The following are the expected differences in outcomes for patients with CRF due to NIDDM, determined as Time to Dialysis, for patients with serum creatinine of at least 2 mg/dl at the first clinic visit:
# The following are the expected differences in outcomes for patients with ADPKD, determined as Time to Dialysis, for patients with serum creatinine of at least 2 mg/di at the fist clinic visit.
# [4] = test system: blood pressure (index of maximum tissue ACE inhibition); details: rats, IV; cited from earlier work
# [5] = test system: patients on ACE inhibitors; details: cited from earlier work
# [6] = compared with ramipril; cited from earlier work
# [7] = test system: patients with kidney failure; assay: Clinical observations in patients with kidney failure; assay type: in vivo, human
# serum potassium = test system: serum potassium
# Description: As described above, fludrocortisone acetate ([…]) can be used to control serum K+ concentration. […] Diabetes Technology & Therapeutics. […] This can be easily achieved using […] (fludrocortisone acetate; see Table A).
smiles,measurement,setting,value
CCOC(=O)C1=C(COCCN)NC(C)=C(C(=O)OC)C1c1ccccc1Cl (stereo not drawn) [Amlodipine],adverse event when added for BP control,[1]; COPD patient on ramipril,Developed CHF
CCOC(=O)[C@H](CCc1ccccc1)N[C@@H](C)C(=O)N1[C@H](C(=O)O)C[C@@H]2CCC[C@@H]21 [ramipril],circulating ACE inhibited,circulating ACE,97%
same,inhibition of enzyme activity,circulating ACE,greater than 95%
same,off-rate t(1/2),[2]; hydrophobic active site,~24 h
same,serum glucose,hemodialysis patients,40 mg/dL
same,serum potassium,hemodialysis patients,above 6 mEq/l
same,new cases of NIDDM,new cases of NIDDM,prevention of new cases of NIDDM
same,FEV1,"[1]; 8/99, baseline 0.87 L",0.83 L
same,BP,[1]; currently on 600 mg/d,135/80
same,effect on pulmonary hypertension,[1]; emphysema (COPD),appears to lower pulmonary hypertension
same,non-fluid weight gain,"[1]; human, in vivo",25 lb.
same,hospitalization,[1]; period of over five years,Hospitalized for CHF but not for COPD
same,BP,"[1]; two weeks after start of 2.5 mg/d, first seen with BP 104/60",180/110
CCOC(=O)[C@H](CCc1ccccc1)N[C@@H](C)C(=O)N1Cc2ccccc2C[C@H]1C(=O)O [quinapril],Time to Dialysis,"[3]; ADPKD, Caucasian men",8.8 yr
same,Time to Dialysis,"[3]; CRF due to NIDDM, African American men",3.3 yr
same,Time to Dialysis,"[3]; CRF due to NIDDM, Caucasian men",2.7 yr
same,Time to Dialysis,"[3]; CRF due to hypertension, African American men",3.6 yr
same,Time to Dialysis,"[3]; CRF due to hypertension, Caucasian men",4.3 yr
same,off-rate t(1/2),[2]; hydrophobic active site,~24 h
same,dose at which maximum blood pressure lowering occurred,[4],3 mg/kg
same,dose-toxicity curve,[5]; from 5 mg/day to 80 mg/day,flat
same,patients with elevation of mood,"[5]; use by 12,000 patients",20%
same,octanol: water partition coefficient,[6],higher
same,serum creatinine on treatment,"[7]; Patient, 20 mg/day given hs, decreased from 4.5",1.7 mg/di
same,slowing down kidney failure,[7]; comparison of quinapril with ramipril,superior to RAMIPRIL
CCCCc1nc(Cl)c(CO)n1Cc1ccc(-c2ccccc2-c2nn[nH]n2)cc1 [Losartan],effect on serum potassium,serum potassium; combined with an ACE inhibitor,elevation of serum potassium
same,benefit when added to QUINAPRIL,"[7]; 50 mg/day, patients with kidney failure",no added benefit
"CC(=O)OCC(=O)[C@@]1(O)CC[C@H]2[C@@H]3CCC4=CC(=O)CC[C@]4(C)[C@@]3(F)[C@@H](O)C[C@@]21C [Florinef, fludrocortisone acetate]",volume (fluid) retention,serum potassium; in vivo,"# retention and congestive heart failure. Clinical observation indicates that volume retention occurs with daily FLORINEF but not with less-than-daily use, even up to five times a week."
same,serum potassium under adequate control,serum potassium; same daily dose despite higher dose of ACE inhibitor,below 5.3 mEq/l
same,control of serum potassium,"serum potassium; up to 0.1 mg daily, chronic renal failure patients on high dose ACE inhibitor (e.g. 2 mg/kg/day quinapril)",could control serum potassium
CCOC(=O)[C@H](CCc1ccccc1)N[C@@H](C)C(=O)N1CCC[C@H]1C(=O)O [enalapril],circulating ACE inhibited,circulating ACE,47%
same,inhibition of enzyme activity,circulating ACE,50%
same,off-rate t(1/2),[2]; hydrophilic site in the circulating form of the enzyme,~4 h
